From patent publication EP0495091B1 (Metabasis Therapeutics Inc., priority 1990, dated 1992)
Where “and” joins values, the source holds several entries; their conditions need not be identical. Equal values may be shown once. Where a name gives a salt, the structure may show the parent alone. Read-outs that look alike come from different tables or passages of the source. Blank lines part the entries; values can stand above or below the compound they belong to.

Key:
Isolated rat hearts = assay: Improved functional recovery in isolated hearts (Langendorff, post-ischemic LVDP); settings: 30 min ischemia, 30 min reperfusion, number in brackets = hearts
Description: Isolated rat hearts were cannulated via the ascending aorta and attached to a perfusion apparatus according to the method of Langendorff. The hearts were perfused at a constant pressure of 100 cm of H2O with a modified Krebs-Henseleit buffer (pH 7.4) at 37°C. As a measure of heart function, left ventricular developed pressure (LVDP) was continuously monitored. Following equilibration of the hearts for a period of 30 min., the hearts were subjected to reduced flow i.e. ischemia, by reducing the pressure to 10 cm of H2O for 30 min. Flow was then restored by returning the pressure to its original level (100 cm of H2O) for a further 30 min.

[1] = biological target: T1, NBTI-specific adenosine transport site (Homo sapiens, UniProt Q99808); assay: [3H]-NBTI binding assay; settings: 50% displacement of bound [3H]-NBTI (0.5 nM); neuronal membrane protein, 30 minutes, pH 7.4, room temperature; read-out: ED50 (the source's name)
T1 construct: incubated for 30 minutes with 0.5 mg neuronal membrane protein together with 0.5 nM [^3H]-NBTI; from tissue
T1 sequence (Q99808 1-456): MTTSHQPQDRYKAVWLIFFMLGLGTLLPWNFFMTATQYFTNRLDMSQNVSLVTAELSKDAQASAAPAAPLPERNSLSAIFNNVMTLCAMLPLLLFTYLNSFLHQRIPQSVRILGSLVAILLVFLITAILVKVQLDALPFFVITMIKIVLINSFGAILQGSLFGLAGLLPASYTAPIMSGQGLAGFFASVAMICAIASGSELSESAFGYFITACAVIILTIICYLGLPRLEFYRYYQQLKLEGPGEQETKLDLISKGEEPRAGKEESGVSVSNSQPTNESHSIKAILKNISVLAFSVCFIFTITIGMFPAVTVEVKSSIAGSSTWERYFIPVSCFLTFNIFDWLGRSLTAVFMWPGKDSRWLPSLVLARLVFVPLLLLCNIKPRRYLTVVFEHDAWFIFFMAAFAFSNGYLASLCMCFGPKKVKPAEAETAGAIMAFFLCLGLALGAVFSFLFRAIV
Description: Increasing concentrations of the test compounds were incubated for 30 minutes with 0.5 mg neuronal membrane protein together with 0.5 nM [^3H]-NBTI in a Tris buffer (pH 7.4) at room temperature. The assays were quenched and membranes collected by rapid filtration. Filters were then solubilized and radioactivity determined by scintillation counting.

[2] = system: platelet aggregation in human whole blood; assay: Inhibition of platelet aggregation in human whole blood; format: cell-based; settings: 10 minutes at 37°C, 10 µM adenosine added 5 minutes before, ADP (6-25 µM) induced, impedance technique
Description: Whole blood was drawn from healthy donors and collected in 0.1 vol. of sodium citrate to prevent coagulation. Platelet aggregation was measured by the impedance technique using a Whole Blood Aggregometer.

[3] = system: longitudinal muscle from the guinea pig ileum; assay: Inhibition of stimulated contraction in isolated ileum
Description: Parallel platinum electrodes were used to deliver electrical current at 1 minute intervals at a voltage adequate to induce contraction of 90% of maximal.

[4] = system: coronary endothelial cells; assay: Inhibition of adenosine utilization in cell culture; format: cell-based; settings: for inhibition at 5 µM / inhibition at 50 µM: Endothelial cell, read-out: Inhibition of Adenosine Utilization (%)
Description: Inhibition of adenosine utilization was determined by measuring the concentration of extracellular adenosine by scintillation counting following separation by thin layer chromatography (TLC).

[5] = Cavia porcellus, concentration which inhibited electrically stimulated contraction by 50%, read-out: IC50
[6] = concentration which inhibited electrically stimulated contraction by 50%, read-out: IC50
[7] = 5 µM test compound, 1 µM [3H] adenosine, 15 minutes
[8] = 50 µM test compound, 1 µM [3H] adenosine, 15 minutes

Structure (SMILES): Nc1c(C(=O)NCCc2ccc([N+](=O)[O-])cc2)ncn1[C@@H]1O[C@H](CO)[C@@H](O)[C@H]1O [Compound No. 59]
Function Recovery % Baseline LVDP (% of hearts) (Isolated rat hearts; 1 µM in perfusion buffer): 75.8±2.2 (7) %
EC50 [1]: 2 µM
IC50 ([2]; Homo sapiens, Platelet): 70 µM

Structure (SMILES): NC[C@H]1O[C@@H](n2cnc(C(=O)NCc3ccc([N+](=O)[O-])cc3)c2N)[C@H](O)[C@@H]1O [Compound No. 72]
IC50 [2]: 300 µM

IC50 [3, 5]: 60 µM
Structure (SMILES): Nc1c(C(=O)NCc2cccc(Cl)c2)ncn1[C@@H]1O[C@H](CO)[C@@H](O)[C@H]1O [Compound No. 35, 5-amino-1-β-D-ribofuranosyl-imidazole-4-N[(3-chlorophenyl)methyl]carboxamide]

Structure (SMILES): Nc1c(C(=O)NCc2ccc(Br)cc2)ncn1[C@@H]1O[C@H](CO)[C@@H](O)[C@H]1O [Compound No. 56, 5-Amino-1-β-D-ribofuranosyl-imidazole-4-N-[(4-bromophenyl)methyl]carboxamide]
inhibition at 5 µM [4]: 55 ± 7%
inhibition at 50 µM [4]: 65 ± 9%
EC50 [1]: 32 µM
IC50 ([2]; Homo sapiens, Platelet): 75 µM

Structure (SMILES): Nc1c(C(=O)NCc2cccc([N+](=O)[O-])c2)ncn1[C@@H]1O[C@H](CO)[C@@H](O)[C@H]1O [Compound No. 28, 5-amino-1-β-D-ribofuranosylimidazole-4-N-[(3-nitrophenyl)methyl]carboxamide]
inhibition at 5 µM [4]: 17 ± 3%
inhibition at 50 µM [4]: 47 ± 2%
EC50 [1]: 15 µM
IC50 ([2]; Homo sapiens, Platelet): 180 µM

Structure (SMILES): Cc1ccc(CNC(=O)c2ncn([C@@H]3O[C@H](CO)[C@@H](O)[C@H]3O)c2N)cc1 [Compound No. 30, 5-amino-1-β-D-ribofuranosylimidazole-4-N-[(4-methylphenyl)methyl]carboxamide]
IC50 ([3]; Cavia porcellus): 20 µM
inhibition at 5 µM [4]: 21 ± 1%
inhibition at 50 µM [4]: 49 ± 4%
EC50 [1]: 225 µM

Structure (SMILES): Nc1c(C(=O)NC2CC3CCC2C3)ncn1[C@@H]1O[C@H](CO)[C@@H](O)[C@H]1O (stereo partly drawn) [Compound No. 45, 5-Amino-1-β-D-ribofuranosylimidazole-4-N-(2-endo-norbornyl)carboxamide]
IC50 ([3]; Cavia porcellus): 100 µM
EC50 [1]: 90 µM

IC50 [3, 6]: 200 µM
Structure (SMILES): NC(=O)c1ncn([C@@H]2O[C@H](CCl)[C@@H](O)[C@H]2O)c1N [Compound No. 26, 5-amino-1-(5-chloro-5-deoxy-β-D-ribofuranosyl) imidazole-4-carboxamide]
Function Recovery % Baseline LVDP (% of hearts) (Isolated rat hearts; 5 µM in perfusion buffer): 70.7±4.1 (8) %

IC50 [3, 5]: 20 µM
Structure (SMILES): Nc1c(C(=O)NCc2cccc(I)c2)ncn1[C@@H]1O[C@H](CO)[C@@H](O)[C@H]1O [Compound No. 44, 5-Amino-1-β-D-ribofuranosyl-imidazole-4-N-[(3-iodophenyl)methyl]carboxamide]

Structure (SMILES): Nc1c(C(=O)SCc2ccc([N+](=O)[O-])cc2)ncn1[C@@H]1O[C@H](CO)[C@@H](O)[C@H]1O
Function Recovery % Baseline LVDP (% of hearts) (Isolated rat hearts; 1 µM in perfusion buffer): 74.0±2.8 (6) %
IC50 ([3]; Cavia porcellus): 10 µM
inhibition at 5 µM [4]: 17 ± 3%
inhibition at 50 µM [4]: 19 ± 2%
EC50 [1]: 0.5 µM

Structure (SMILES): Nc1c(C(=O)NCc2ccccc2Cl)ncn1[C@@H]1O[C@H](CO)[C@@H](O)[C@H]1O [Compound No. 24, 5-Amino-1-β-D-ribofuranosylimidazole-4-N-[(2-chlorophenyl)methyl]carboxamide]
IC50 ([3]; Cavia porcellus): 400 µM
EC50 [1]: 300 µM

IC50 [3, 6]: 100 µM
Structure (SMILES): CN(C)c1ccc(CNC(=O)c2ncn([C@@H]3O[C@H](CO)[C@@H](O)[C@H]3O)c2N)cc1 [Compound No. 41, 5-Amino-1-β-D-ribofuranosylimidazole-4-N(4-dimethylaminobenzyl)-carboxamide hydrochloride]

IC50 [3, 6]: 6 µM
Structure (SMILES): Nc1c(C(=O)NC[C@H](O)c2ccc(O)c(O)c2)ncn1[C@@H]1O[C@H](CO)[C@@H](O)[C@H]1O [compound 42, (R)-5-Amino-1-β-D-ribofurano-sylimidazole-4-N-[2-hydroxy-2-(3,4-dihydroxyphenyl)ethyl]carboxamide]

Structure (SMILES): Nc1c(C(=O)NCc2ccc(C(F)(F)F)cc2)ncn1[C@@H]1O[C@H](CO)[C@@H](O)[C@H]1O [Compound No. 74]
Function Recovery % Baseline LVDP (% of hearts) (Isolated rat hearts; 5 µM in perfusion buffer): 73.3±3.3 (6) %

Structure (SMILES): C[C@H]1O[C@@H](n2cnc(C(=O)NCc3ccc(Cl)cc3)c2N)[C@H](O)[C@@H]1O [Compound No. 61, 5-Amino-1-(5-deoxy-β-D-ribofuranosyl) imidazole-4N-[(4-chlorophenyl)methyl]carboxamide]
inhibition at 5 µM [4]: 37 ± 28%
inhibition at 50 µM [4]: 72 ± 5%
EC50 [1]: 32 µM
IC50 ([2]; Homo sapiens, Platelet): 171 µM

Structure (SMILES): Nc1c(C(=O)NCCCCCCNC(=O)c2ncn([C@@H]3O[C@H](CO)[C@@H](O)[C@H]3O)c2N)ncn1[C@@H]1O[C@H](CO)[C@@H](O)[C@H]1O [Compound No. 68, N,N'-bis-(5-amino-1-β-D-ribofuranosylimidazole-4-carbonyl)-1,6-diaminohexane]
Function Recovery % Baseline LVDP (% of hearts) (Isolated rat hearts; 5 µM in perfusion buffer): 75.3±2.2 (4) %

Structure (SMILES): COc1ccc(CNC(=O)c2ncn([C@@H]3O[C@H](CO)[C@@H](O)[C@H]3O)c2N)cc1 [Compound No. 39, 5-Amino-1-β-D-ribofuranosyl-imidazole-4-N-(p-methoxybenzyl)carboxamide]
IC50 ([3]; Cavia porcellus): 500 µM
inhibition at 5 µM [4]: 7 ± 4%
inhibition at 50 µM [4]: 29 ± 1%
EC50 [1]: 600 µM

Structure (SMILES): Nc1c(C(=O)NC2CCC(NC(=O)c3ncn([C@@H]4O[C@H](CO)[C@@H](O)[C@H]4O)c3N)CC2)ncn1[C@@H]1O[C@H](CO)[C@@H](O)[C@H]1O (stereo partly drawn) [Compound No. 69, N,N'-Bis-(5-Amino-1-β-D-ribofuranosylimidazole-4-carbonyl)-1,4-diaminocyclohexane]
Function Recovery % Baseline LVDP (% of hearts) (Isolated rat hearts; 5 µM in perfusion buffer): 77.0±2.8 (6) %

Structure (SMILES): [N-]=[N+]=NC[C@H]1O[C@@H](n2cnc(C(=O)NCc3ccc([N+](=O)[O-])cc3)c2N)[C@H](O)[C@@H]1O [Compound No. 71, 5-Amino-1-(5-azido-5-deoxy-B-D-ribofuranosyl)imidazole-4-N-[(4-nitrophenyl)methyl]carboxamide]
Inhibition of Adenosine Utilization (%) [4, 7]: 10 ± 3%
Inhibition of Adenosine Utilization (%) [4, 8]: 31 ± 11%
IC50 [2]: 40 µM

Structure (SMILES): CNC[C@H]1O[C@@H](n2cnc(C(N)=O)c2N)[C@H](O)[C@@H]1O [Compound No. 63, 5-Amino-1-β-D-(5-deoxy-5-methylaminoribofuranosyl)imidazole-4-carboxamide]
Function Recovery % Baseline LVDP (% of hearts) (Isolated rat hearts; 5 µM in perfusion buffer): 79.7±4.8 (4) %

Structure (SMILES): NC(=O)c1ncn([C@@H]2O[C@H](CNCc3ccccc3)[C@@H](O)[C@H]2O)c1N [Compound No. 66, 5-Amino-1-β-D-(5-benzylamino-5-deoxyribofuranosyl)imidazole-4-carboxamide]
Function Recovery % Baseline LVDP (% of hearts) (Isolated rat hearts; 5 µM in perfusion buffer): 88.5±1.8 (5) %

Structure (SMILES): Nc1c(C(=O)NCc2ccc(Cl)cc2Cl)ncn1[C@@H]1O[C@H](CO)[C@@H](O)[C@H]1O [Compound No. 25, 5-amino-1-β-D-ribofuranosylimidazole-4-N-[(2,4-dichlorophenyl)methyl]carboxamide]
Function Recovery % Baseline LVDP (% of hearts) (Isolated rat hearts; 5 µM in perfusion buffer, listed as 25 (1-360)): 86.8±2.3 (6) % and 72.4±1.6 (6) %
IC50 ([3]; Cavia porcellus): 20 µM
inhibition at 5 µM [4]: 21 ± 1%
inhibition at 50 µM [4]: 56 ± 2%
EC50 [1]: 72 µM

Structure (SMILES): Cl.NC[C@H]1O[C@@H](n2cnc(C(=O)NC3CCCC3)c2N)[C@H](O)[C@@H]1O [Compound No. 37, 5-Amino-1-(5-amino-5-deoxy-β-D-ribofuranosyl)imidazole-4-N-(cyclopentyl)carboxamide Hydrochloride]
Function Recovery % Baseline LVDP (% of hearts) (Isolated rat hearts; 5 µM in perfusion buffer): 71.9±3.0 (5) %

Structure (SMILES): [N-]=[N+]=NC[C@H]1O[C@@H](n2cnc(C(=O)NCc3ccc(Cl)cc3)c2N)[C@H](O)[C@@H]1O [Compound No. 52, 5-Amino-1-(5-azido-5-deoxy-β-D-ribofuranosyl)imidazole-4-N-[(4-chlorophenyl)methyl]-carboxamide]
Function Recovery % Baseline LVDP (% of hearts) (Isolated rat hearts; 5 µM in perfusion buffer): 86.0±2.5 (5) %
inhibition at 5 µM [4, 7]: 56 ± 2%
inhibition at 50 µM [4, 8]: 71 ± 1%
